Assay type in all cases: cell-based
In experiment [1] the target is T1, Equilibrative nucleoside transporter 2 (Rattus norvegicus) (UniProt O54699).
T1 sequence (whole entry): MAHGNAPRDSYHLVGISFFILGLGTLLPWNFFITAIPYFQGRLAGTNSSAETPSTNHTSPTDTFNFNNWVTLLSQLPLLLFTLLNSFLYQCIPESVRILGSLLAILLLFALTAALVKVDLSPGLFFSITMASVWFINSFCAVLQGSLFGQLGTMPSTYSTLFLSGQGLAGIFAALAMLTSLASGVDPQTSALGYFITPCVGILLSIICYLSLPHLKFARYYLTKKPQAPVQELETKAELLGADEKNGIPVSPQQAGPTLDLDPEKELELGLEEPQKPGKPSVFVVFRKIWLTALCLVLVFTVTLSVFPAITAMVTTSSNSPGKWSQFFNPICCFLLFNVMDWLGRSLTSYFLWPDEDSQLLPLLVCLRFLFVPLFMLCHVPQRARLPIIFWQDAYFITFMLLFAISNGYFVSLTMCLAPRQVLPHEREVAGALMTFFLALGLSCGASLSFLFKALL
Kind of experiment: Transport through ENT2 in rat hepatocytes by oil filtration assay. The following applies: Hepatocyte.

The target of experiment [2] is T2, Equilibrative nucleoside transporter 2 (Mus musculus) (UniProt Q61672).
T2 sequence (whole entry): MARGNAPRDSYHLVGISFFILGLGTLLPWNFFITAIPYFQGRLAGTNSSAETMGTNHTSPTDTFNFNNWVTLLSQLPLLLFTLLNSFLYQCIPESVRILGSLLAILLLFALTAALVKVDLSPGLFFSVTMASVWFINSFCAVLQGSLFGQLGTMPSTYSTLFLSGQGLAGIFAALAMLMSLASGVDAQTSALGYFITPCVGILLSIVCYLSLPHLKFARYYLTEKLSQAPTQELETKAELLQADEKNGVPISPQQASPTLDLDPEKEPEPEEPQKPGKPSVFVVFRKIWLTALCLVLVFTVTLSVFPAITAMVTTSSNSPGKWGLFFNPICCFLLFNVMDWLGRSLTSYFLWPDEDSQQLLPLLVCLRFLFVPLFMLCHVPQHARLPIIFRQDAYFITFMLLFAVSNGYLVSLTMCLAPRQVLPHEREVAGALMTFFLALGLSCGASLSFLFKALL
The experiment can be described thus: Transport through ENT2 in mouse hepatocytes by oil filtration assay in presence of sodium ions in Kreb-henseleit buffer. To be noted: Hepatocyte.

The target of experiment [3] is T3, Equilibrative nucleoside transporter 1 (Rattus norvegicus) (UniProt O54698).
T3 sequence (whole entry): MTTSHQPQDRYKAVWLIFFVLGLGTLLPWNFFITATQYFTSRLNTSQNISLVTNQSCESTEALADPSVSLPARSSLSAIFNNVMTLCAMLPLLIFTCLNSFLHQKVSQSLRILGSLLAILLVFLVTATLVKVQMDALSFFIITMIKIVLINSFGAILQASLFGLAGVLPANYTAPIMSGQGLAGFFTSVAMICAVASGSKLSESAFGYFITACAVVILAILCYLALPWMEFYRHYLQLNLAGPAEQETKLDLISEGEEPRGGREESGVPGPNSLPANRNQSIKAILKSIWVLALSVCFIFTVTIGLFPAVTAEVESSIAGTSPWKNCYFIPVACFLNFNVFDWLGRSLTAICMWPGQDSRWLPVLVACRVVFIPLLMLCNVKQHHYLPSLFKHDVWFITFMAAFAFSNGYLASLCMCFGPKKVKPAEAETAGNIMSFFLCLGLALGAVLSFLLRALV
The experiment can be described thus: Transport through ENT1 in rat hepatocytes by oil filtration assay in presence 100 nM of transporter inhibitor NBMRP. To be noted: Hepatocyte.

Experiment [4] has as its system Hepatocyte. The experiment can be described thus: Transport through CNT3 in rat hepatocytes by oil filtration assay in presence of sodium ions in Kreb-henseleit buffer.
Experiment [5] deals with T4, Sodium/nucleoside cotransporter 2 (Rattus norvegicus) (UniProt Q62773).
T4 sequence (whole entry): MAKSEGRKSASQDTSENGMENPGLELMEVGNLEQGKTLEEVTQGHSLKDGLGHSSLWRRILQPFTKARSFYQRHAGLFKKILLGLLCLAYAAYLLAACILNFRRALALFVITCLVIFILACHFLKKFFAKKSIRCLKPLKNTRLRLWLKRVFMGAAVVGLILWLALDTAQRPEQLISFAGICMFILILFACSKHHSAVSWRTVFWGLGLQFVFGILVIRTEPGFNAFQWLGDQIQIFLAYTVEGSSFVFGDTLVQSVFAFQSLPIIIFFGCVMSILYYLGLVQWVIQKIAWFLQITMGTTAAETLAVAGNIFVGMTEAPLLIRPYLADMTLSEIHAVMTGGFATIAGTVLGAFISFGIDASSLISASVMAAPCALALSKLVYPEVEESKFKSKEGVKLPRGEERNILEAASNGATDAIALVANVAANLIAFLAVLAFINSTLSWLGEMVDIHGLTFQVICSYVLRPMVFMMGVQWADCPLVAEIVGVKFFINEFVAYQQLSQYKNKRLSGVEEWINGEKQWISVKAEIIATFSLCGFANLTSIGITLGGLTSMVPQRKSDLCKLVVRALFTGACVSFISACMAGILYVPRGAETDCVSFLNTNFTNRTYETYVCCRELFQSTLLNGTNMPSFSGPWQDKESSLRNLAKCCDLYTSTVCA
The experiment can be described thus: Transport through CNT2 in rat hepatocytes by oil filtration assay in presence of sodium ions in Kreb-henseleit buffer containing 100 uM NBMPR and 1 mM inosine. The following applies: Hepatocyte.

For experiment [6], the target named is T1, Equilibrative nucleoside transporter 2 (Rattus norvegicus). Kind of experiment: Transport through ENT2 in rat hepatocytes by oil filtration assay in presence of sodium ions in Kreb-henseleit buffer containing 100 uM NBMPR and 1 mM uridine. The following applies: Hepatocyte.
Experiment [7] has as its target T5, Equilibrative nucleoside transporter 1 (Mus musculus) (UniProt Q9JIM1).
T5 sequence (whole entry): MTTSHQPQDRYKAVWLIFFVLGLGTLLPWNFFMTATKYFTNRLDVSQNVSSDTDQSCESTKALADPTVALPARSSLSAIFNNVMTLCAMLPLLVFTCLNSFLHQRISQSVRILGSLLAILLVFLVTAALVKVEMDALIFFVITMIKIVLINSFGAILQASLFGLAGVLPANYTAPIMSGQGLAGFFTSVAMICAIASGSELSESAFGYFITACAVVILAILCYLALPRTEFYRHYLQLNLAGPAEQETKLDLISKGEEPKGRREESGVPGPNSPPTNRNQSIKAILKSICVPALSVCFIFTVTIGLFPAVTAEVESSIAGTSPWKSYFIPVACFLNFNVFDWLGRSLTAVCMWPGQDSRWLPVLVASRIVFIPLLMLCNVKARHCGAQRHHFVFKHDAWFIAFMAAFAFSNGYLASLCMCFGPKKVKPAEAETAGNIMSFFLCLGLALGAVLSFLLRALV
Kind of experiment: Transport through ENT1 in mouse hepatocytes by oil filtration assay in presence 100 nM of transporter inhibitor NBMRP. To be noted: Hepatocyte.

Experiment [8] has as its target T3, Equilibrative nucleoside transporter 1 (Rattus norvegicus). Kind of experiment: Transport through ENT1 in rat hepatocytes by oil filtration assay in presence of sodium ions in Kreb-henseleit buffer. To be noted: Hepatocyte.
The target of experiment [9] is T5, Equilibrative nucleoside transporter 1 (Mus musculus). Kind of experiment: Transport through ENT1 in mouse hepatocytes by oil filtration assay in presence of sodium ions in Kreb-henseleit buffer. The following applies: Hepatocyte.
Experiment [10] concerns the target T3, Equilibrative nucleoside transporter 1 (Rattus norvegicus). Kind of experiment: Transport through ENT1 in rat hepatocytes by oil filtration assay in presence of sodium ions in Kreb-henseleit buffer containing 100 uM NBMPR. The following applies: Hepatocyte.

Activity calls are given as the source filed them. The calls are words filed in the database; no cut-off is given here.

Regarding `Nc1ncnc2c1ncn2[C@@H]1O[C@H](CO)[C@@H](O)[C@H]1O`, the result in experiment [1], in experiment [2], in [3], in [5], in experiment [6] and in experiment [7] was inactive. Also, the outcome in experiment [8] and in [9] was inactive. The result in [4] and in [10] was Active.

For the compound `NC(=O)c1ncn([C@@H]2O[C@H](CO)[C@@H](O)[C@H]2O)n1`, the result in experiment [1], in [4] and in experiment [10] was Active. In addition, the result in [2], in experiment [3], in experiment [5], in experiment [6], in experiment [7] and in experiment [8] was inactive. The result in [9] was inactive.

Source of the values: ChEMBL document CHEMBL1275601, “Striking species difference in the contribution of concentrative nucleoside transporter 2 to nucleoside uptake between mouse and rat hepatocytes” (Antimicrob Agents Chemother, 2010).
